Measurements taken from publication PMC5218480 (PLoS ONE, 2017).

System: MV-4-11 cells
Experiment: Gene expression microarray analysis (Affymetrix PrimeView) and GSEA
Format: cell-based, human
Design: RFU PODN (11730768_x_at) / Fold change /veh PODN (11730768_x_at) / RFU LINC00158 (11744669_a_at) / Fold change /veh LINC00158 (11744669_a_at) / RFU DUSP10 (11751237_a_at) / Fold change /veh DUSP10 (11751237_a_at) / RFU ID3 (11757404_x_at) / Fold change /veh ID3 (11757404_x_at) / RFU PLEKHG5 (11737974_s_at) / Fold change /veh PLEKHG5 (11737974_s_at) / RFU LRRC4B (11730491_at) / Fold change /veh LRRC4B (11730491_at) / RFU GIMAP4 (11747438_a_at) / Fold change /veh GIMAP4 (11747438_a_at) / RFU KRT8 (11758183_x_at) / Fold change /veh KRT8 (11758183_x_at) / RFU CNN1 (11734310_a_at) / Fold change /veh CNN1 (11734310_a_at) / RFU VPS37D (11726825_at) / Fold change /veh VPS37D (11726825_at) / RFU C10orf10 (11716522_x_at) / Fold change /veh C10orf10 (11716522_x_at) / RFU KIR2DL2 /// KIR2DL4 /// KIR2DL5A /// KIR2DL5B /// KIR2DS1 /// KIR2DS2 /// KIR2DS3 /// KIR2DS4 /// KIR3DL3 /// KIR3DL3 /// KIR3DS1 (11738374_at) / Fold change /veh KIR2DL2 /// KIR2DL4 /// KIR2DL5A /// KIR2DL5B /// KIR2DS1 /// KIR2DS2 /// KIR2DS3 /// KIR2DS4 /// KIR3DL3 /// KIR3DL3 /// KIR3DS1 (11738374_at) / RFU C1QL1 (11718748_at) / Fold change /veh C1QL1 (11718748_at) / RFU TMPRSS4 (11747572_a_at) / Fold change /veh TMPRSS4 (11747572_a_at) / RFU HAMP (11756126_x_at) / Fold change /veh HAMP (11756126_x_at) / RFU RNFT2 (11725882_a_at) / Fold change /veh RNFT2 (11725882_a_at) / RFU NR4A2 (11747474_a_at) / Fold change /veh NR4A2 (11747474_a_at) / RFU ABCC12 (11746883_a_at) / Fold change /veh ABCC12 (11746883_a_at) / RFU TMEM136 (11760407_x_at) / Fold change /veh TMEM136 (11760407_x_at) / RFU CLDN22 /// WWC2 (11732394_at) / Fold change /veh CLDN22 /// WWC2 (11732394_at) / RFU HLA-DPB1 (11760878_x_at) / Fold change /veh HLA-DPB1 (11760878_x_at) / RFU SPINT1 (11716480_a_at) / Fold change /veh SPINT1 (11716480_a_at) / RFU GAP43 (11754022_s_at) / Fold change /veh GAP43 (11754022_s_at) / RFU A4GNT (11735810_at) / Fold change /veh A4GNT (11735810_at) / RFU PRB3 (11715151_x_at) / Fold change /veh PRB3 (11715151_x_at) / RFU TUBB4B (11761932_at) / Fold change /veh TUBB4B (11761932_at) / RFU CAPN14 (11732068_a_at) / Fold change /veh CAPN14 (11732068_a_at) / RFU TMCC2 (11721928_a_at) / Fold change /veh TMCC2 (11721928_a_at) / RFU IRGQ (11745062_a_at) / Fold change /veh IRGQ (11745062_a_at) / RFU FAM174B (11720279_a_at) / Fold change /veh FAM174B (11720279_a_at) / RFU TMPRSS4 (11748680_a_at) / Fold change /veh TMPRSS4 (11748680_a_at) / RFU FAM212B (11763350_a_at) / Fold change /veh FAM212B (11763350_a_at) / RFU PLEKHG5 (11743358_a_at) / Fold change /veh PLEKHG5 (11743358_a_at) / RFU ZSCAN30 (11745921_a_at) / Fold change /veh ZSCAN30 (11745921_a_at) / RFU CMKLR1 (11741424_a_at) / Fold change /veh CMKLR1 (11741424_a_at) / RFU LOC101060620 /// MAPK8IP1 (11723275_at) / Fold change /veh LOC101060620 /// MAPK8IP1 (11723275_at) / RFU SPTSSB (11747773_x_at) / Fold change /veh SPTSSB (11747773_x_at) / RFU PRSS12 (11739890_at) / Fold change /veh PRSS12 (11739890_at) / RFU BIN1 (11741810_x_at) / Fold change /veh BIN1 (11741810_x_at) / RFU WNT11 (11732464_a_at) / Fold change /veh WNT11 (11732464_a_at) / RFU C10orf10 (11716521_a_at) / Fold change /veh C10orf10 (11716521_a_at) / RFU C5orf56 (11738089_at) / Fold change /veh C5orf56 (11738089_at) / RFU CYB561 (11721691_x_at) / Fold change /veh CYB561 (11721691_x_at) / RFU ANKRD19P (11752326_a_at) / Fold change /veh ANKRD19P (11752326_a_at) / RFU OR2T12 /// OR2T33 /// OR2T8 (11738714_s_at) / Fold change /veh OR2T12 /// OR2T33 /// OR2T8 (11738714_s_at) / RFU VCAN (11748164_a_at) / Fold change /veh VCAN (11748164_a_at) / RFU JSRP1 (11732532_at) / Fold change /veh JSRP1 (11732532_at) / RFU KRTAP10-11 (11738290_x_at) / Fold change /veh KRTAP10-11 (11738290_x_at) / RFU MYO3A (11730013_a_at) / Fold change /veh MYO3A (11730013_a_at) / RFU EBF3 (11725865_a_at) / Fold change /veh EBF3 (11725865_a_at) / RFU CAMK2N1 (11719241_x_at) / Fold change /veh CAMK2N1 (11719241_x_at) / RFU C5orf56 (11738088_a_at) / Fold change /veh C5orf56 (11738088_a_at) / RFU OLFML3 (11715873_a_at) / Fold change /veh OLFML3 (11715873_a_at) / RFU LOC100653217 /// NTM (11731650_a_at) / Fold change /veh LOC100653217 /// NTM (11731650_a_at) / RFU MAPK11 (11762145_a_at) / Fold change /veh MAPK11 (11762145_a_at) / RFU FIZ1 (11724087_x_at) / Fold change /veh FIZ1 (11724087_x_at) / RFU OASL (11726364_x_at) / Fold change /veh OASL (11726364_x_at) / RFU SOX15 (11748057_x_at) / Fold change /veh SOX15 (11748057_x_at) / RFU CD79A (11719716_a_at) / Fold change /veh CD79A (11719716_a_at) / RFU HIST1H1D (11736915_at) / Fold change /veh HIST1H1D (11736915_at) / RFU CASKIN2 (11723855_a_at) / Fold change /veh CASKIN2 (11723855_a_at) / RFU LOC730098 (11760151_x_at) / Fold change /veh LOC730098 (11760151_x_at) / RFU OR4N2 (11742367_at) / Fold change /veh OR4N2 (11742367_at) / RFU PRRT2 (11749266_a_at) / Fold change /veh PRRT2 (11749266_a_at) / RFU SNX32 (11753110_a_at) / Fold change /veh SNX32 (11753110_a_at) / RFU CDHR5 (11726645_a_at) / Fold change /veh CDHR5 (11726645_a_at) / RFU RCAN1 (11760418_a_at) / Fold change /veh RCAN1 (11760418_a_at) / RFU FAM167A (11723789_a_at) / Fold change /veh FAM167A (11723789_a_at) / RFU FAM26E (11764081_at) / Fold change /veh FAM26E (11764081_at) / RFU ISYNA1 (11749810_s_at) / Fold change /veh ISYNA1 (11749810_s_at) / RFU ACY1 (11761880_at) / Fold change /veh ACY1 (11761880_at) / RFU 11764098_at / Fold change /veh 11764098_at / RFU SAMD14 (11745864_x_at) / Fold change /veh SAMD14 (11745864_x_at) / RFU NPB (11741838_a_at) / Fold change /veh NPB (11741838_a_at) / RFU TMPRSS6 (11731388_a_at) / Fold change /veh TMPRSS6 (11731388_a_at) / RFU KRTAP10-2 (11738614_at) / Fold change /veh KRTAP10-2 (11738614_at) / RFU ARHGAP8 /// PRR5-ARHGAP8 (11727945_x_at) / Fold change /veh ARHGAP8 /// PRR5-ARHGAP8 (11727945_x_at) / RFU KRTAP5-7 /// NADSYN1 (11734609_at) / Fold change /veh KRTAP5-7 /// NADSYN1 (11734609_at) / RFU RASL12 (11751679_a_at) / Fold change /veh RASL12 (11751679_a_at) / RFU CDKN2B (11736163_a_at) / Fold change /veh CDKN2B (11736163_a_at) / RFU PRF1 (11729649_at) / Fold change /veh PRF1 (11729649_at) / RFU, ZNF638 /// ZNF638-IT1 / Fold change vs veh, ZNF638 /// ZNF638-IT1 / RFU, PANK3 / Fold change vs veh, PANK3 / RFU, SH3YL1 / Fold change vs veh, SH3YL1 / RFU, ZEB2 / Fold change vs veh, ZEB2 / RFU, NRIP1 / Fold change vs veh, NRIP1 / RFU, PTTG1IP / Fold change vs veh, PTTG1IP / RFU, CAPN2 / Fold change vs veh, CAPN2 / RFU, MED14 / Fold change vs veh, MED14 / RFU, SNORA58 / Fold change vs veh, SNORA58 / RFU, C1orf63 / Fold change vs veh, C1orf63 / RFU, LRRFIP1 / Fold change vs veh, LRRFIP1 / RFU, NDUFAF7 / Fold change vs veh, NDUFAF7 / RFU, SLC12A2 / Fold change vs veh, SLC12A2 / RFU, IBTK / Fold change vs veh, IBTK / RFU, ESF1 / Fold change vs veh, ESF1 / Fold change vs veh, TMEM50B / RFU, TAOK1 / Fold change vs veh, TAOK1 / RFU, ACBD3 / Fold change vs veh, ACBD3 / RFU, TMA16 / Fold change vs veh, TMA16 / RFU, RWDD3 / Fold change vs veh, RWDD3 / RFU, BCAT1 / Fold change vs veh, BCAT1 / RFU, EDEM3 / Fold change vs veh, EDEM3 / RFU, TMEM33 / Fold change vs veh, TMEM33 / RFU, WDR75 / Fold change vs veh, WDR75 / RFU, AHCTF1 / Fold change vs veh, AHCTF1 / RFU, TFRC / Fold change vs veh, TFRC / RFU, ZDHHC17 / Fold change vs veh, ZDHHC17 / RFU, NOM1 / Fold change vs veh, NOM1 / RFU, ARL8B / Fold change vs veh, ARL8B / RFU, ZBTB11 / Fold change vs veh, ZBTB11 / RFU, TAMM41 / Fold change vs veh, TAMM41 / RFU, KIAA1704 /// LOC100996395 / Fold change vs veh, KIAA1704 /// LOC100996395 / RFU, ING1 / Fold change vs veh, ING1 / RFU, TRMT61B / Fold change vs veh, TRMT61B / RFU, FUBP3 / Fold change vs veh, FUBP3 / RFU, TP53 / Fold change vs veh, TP53 / RFU, TNKS2 / Fold change vs veh, TNKS2 / RFU, ZFP14 / Fold change vs veh, ZFP14 / RFU, ACTR2 / Fold change vs veh, ACTR2 / RFU, PPP3R1 / Fold change vs veh, PPP3R1 / RFU, PIK3R1 / Fold change vs veh, PIK3R1 / RFU, HNRNPA1 / Fold change vs veh, HNRNPA1 / RFU, RNF170 / Fold change vs veh, RNF170 / RFU, ZNF28 / Fold change vs veh, ZNF28 / RFU, RNGTT / Fold change vs veh, RNGTT / RFU, OGT / Fold change vs veh, OGT / RFU, BRD1 / Fold change vs veh, BRD1 / RFU, MARS / Fold change vs veh, MARS / RFU, ZNF655 / Fold change vs veh, ZNF655 / RFU, FAHD1 / Fold change vs veh, FAHD1 / RFU, BDP1 / Fold change vs veh, BDP1 / RFU, LRRCC1 / Fold change vs veh, LRRCC1 / RFU, ARID1A / Fold change vs veh, ARID1A / RFU, ZNF146 / Fold change vs veh, ZNF146 / RFU, ZNF330 / Fold change vs veh, ZNF330 / RFU, GPN3 / Fold change vs veh, GPN3 / RFU, C9orf123 / Fold change vs veh, C9orf123 / RFU, N4BP2L2 / Fold change vs veh, N4BP2L2 / RFU, ARFIP1 / Fold change vs veh, ARFIP1 / RFU, FAM179B / Fold change vs veh, FAM179B / RFU, BCL10 / Fold change vs veh, BCL10 / RFU, UHRF1BP1L / Fold change vs veh, UHRF1BP1L / RFU, BET1 / Fold change vs veh, BET1 / RFU, CNOT2 / Fold change vs veh, CNOT2 / RFU, ZNF268 / Fold change vs veh, ZNF268 / Fold change vs veh, ZNF507 / RFU, DGCR2 / Fold change vs veh, DGCR2 / RFU, WDSUB1 / Fold change vs veh, WDSUB1 / Fold change vs veh, HSP90B1 /// MIR3652 / RFU, ADSS / Fold change vs veh, ADSS / RFU, GK / Fold change vs veh, GK / RFU, ZNF148 / Fold change vs veh, ZNF148 / RFU, TAF9 / Fold change vs veh, TAF9 / RFU, SLC1A5 / Fold change vs veh, SLC1A5 / RFU, SLMO2 / Fold change vs veh, SLMO2 / RFU, ABCC4 / Fold change vs veh, ABCC4 / RFU, LOC101060439 /// RAP1B / Fold change vs veh, LOC101060439 /// RAP1B / RFU, RFX7 / Fold change vs veh, RFX7 / RFU, GTPBP10 / Fold change vs veh, GTPBP10 / RFU, CNEP1R1 / Fold change vs veh, CNEP1R1 / RFU, BIVM-ERCC5 /// ERCC5 / Fold change vs veh, BIVM-ERCC5 /// ERCC5 / RFU, ILF3 / Fold change vs veh, ILF3 / RFU 11762660_at / Fold change /veh 11762660_at / RFU VCAN (11757783_s_at) / Fold change /veh VCAN (11757783_s_at) / RFU DDX43 (11728927_at) / Fold change /veh DDX43 (11728927_at) / RFU KRT8 (11758188_x_at) / Fold change /veh KRT8 (11758188_x_at) / RFU NKD1 (11759106_at) / Fold change /veh NKD1 (11759106_at) / RFU SRD5A1 (11742802_a_at) / Fold change /veh SRD5A1 (11742802_a_at) / RFU TPSAB1 /// TPSB2 (11721975_s_at) / Fold change /veh TPSAB1 /// TPSB2 (11721975_s_at) / RFU GSTM3 (11746129_a_at) / Fold change /veh GSTM3 (11746129_a_at) / RFU IL23R (11737362_x_at) / Fold change /veh IL23R (11737362_x_at) / RFU TMEM51 (11727254_a_at) / Fold change /veh TMEM51 (11727254_a_at) / RFU PIWIL2 (11732686_x_at) / Fold change /veh PIWIL2 (11732686_x_at) / RFU ORM1 (11744905_x_at) / Fold change /veh ORM1 (11744905_x_at) / RFU CCDC152 (11743942_at) / Fold change /veh CCDC152 (11743942_at) / RFU ECM1 (11717891_a_at) / Fold change /veh ECM1 (11717891_a_at) / RFU IL23R (11748794_a_at) / Fold change /veh IL23R (11748794_a_at) / RFU TNFAIP8L3 (11732012_x_at) / Fold change /veh TNFAIP8L3 (11732012_x_at) / RFU MBOAT4 (11741988_at) / Fold change /veh MBOAT4 (11741988_at) / RFU 11764193_at / Fold change /veh 11764193_at / RFU TMEM53 (11763286_at) / Fold change /veh TMEM53 (11763286_at) / RFU MAGEB2 (11727129_at) / Fold change /veh MAGEB2 (11727129_at) / RFU TMEM200A (11744735_a_at) / Fold change /veh TMEM200A (11744735_a_at) / RFU CCDC152 (11751479_a_at) / Fold change /veh CCDC152 (11751479_a_at) / RFU FAM211A (11726209_a_at) / Fold change /veh FAM211A (11726209_a_at) / RFU RGS16 (11746705_a_at) / Fold change /veh RGS16 (11746705_a_at) / RFU VCAN (11755009_s_at) / Fold change /veh VCAN (11755009_s_at) / RFU RHOB (11743442_s_at) / Fold change /veh RHOB (11743442_s_at) / RFU RGS16 (11720943_a_at) / Fold change /veh RGS16 (11720943_a_at) / RFU RGS16 (11720944_at) / Fold change /veh RGS16 (11720944_at) / RFU, VPS4B / Fold change vs veh, VPS4B / RFU, CREB1 / Fold change vs veh, CREB1 / RFU, DNAJC13 / Fold change vs veh, DNAJC13 / RFU, GNAQ / Fold change vs veh, GNAQ / RFU, CDK5R1 / Fold change vs veh, CDK5R1 / RFU, ZRANB3 / Fold change vs veh, ZRANB3 / RFU, CUL4A / Fold change vs veh, CUL4A / RFU, CCNY / Fold change vs veh, CCNY / RFU, UFL1 / Fold change vs veh, UFL1 / RFU, COG3 / Fold change vs veh, COG3 / RFU, DIAPH2 / Fold change vs veh, DIAPH2 / RFU, SKA2 / Fold change vs veh, SKA2 / RFU, AFF3 / Fold change vs veh, AFF3 / RFU, LMF1 / Fold change vs veh, LMF1 / RFU, IPO11 / Fold change vs veh, IPO11 / RFU, DFFB / Fold change vs veh, DFFB / RFU, FOXP1 / Fold change vs veh, FOXP1 / RFU, CARD8 / Fold change vs veh, CARD8 / RFU, STRN3 / Fold change vs veh, STRN3 / RFU, ADK / Fold change vs veh, ADK / RFU, RASSF2 / Fold change vs veh, RASSF2 / RFU, WIPF1 / Fold change vs veh, WIPF1 / RFU, LARP1B / Fold change vs veh, LARP1B / RFU, RASA1 / Fold change vs veh, RASA1 / RFU, RB1 / Fold change vs veh, RB1 / RFU, PPFIA1 / Fold change vs veh, PPFIA1 / RFU, MAT2A / Fold change vs veh, MAT2A / RFU, CCT5 / Fold change vs veh, CCT5 / RFU, WDR92 / Fold change vs veh, WDR92 / RFU, CUX1 / Fold change vs veh, CUX1 / RFU, TTC7A / Fold change vs veh, TTC7A / RFU, TMEM135 / Fold change vs veh, TMEM135 / RFU, DEPTOR / Fold change vs veh, DEPTOR / RFU, CPM / Fold change vs veh, CPM / RFU, DNAJB6 / Fold change vs veh, DNAJB6 / RFU, CACNA2D3 / Fold change vs veh, CACNA2D3 / RFU, DTX4 / Fold change vs veh, DTX4 / RFU, TFCP2 / Fold change vs veh, TFCP2 / RFU, GMCL1 /// GMCL1P1 / Fold change vs veh, GMCL1 /// GMCL1P1 / RFU, AEBP2 / Fold change vs veh, AEBP2 / RFU, SNHG1 /// SNORD22 /// SNORD25 /// SNORD26 /// SNORD27 /// SNORD28 /// SNORD29 /// SNORD31 / Fold change vs veh, SNHG1 /// SNORD22 /// SNORD25 /// SNORD26 /// SNORD27 /// SNORD28 /// SNORD29 /// SNORD31 / Fold change (Aza/veh), C12orf56 (ProbeSet 11735607_a_at) / Fold change (ACY-1035/veh), C12orf56 (ProbeSet 11735607_a_at) / Fold change (Aza/veh), FGFR1OP (ProbeSet 11751329_s_at) / Fold change (ACY-1035/veh), FGFR1OP (ProbeSet 11751329_s_at) / Fold change (Aza/veh), VPS36 (ProbeSet 11739960_a_at) / Fold change (ACY-1035/veh), VPS36 (ProbeSet 11739960_a_at) / RFU SYPL1 (11715823_x_at) / Fold change /veh SYPL1 (11715823_x_at) / RFU IGFBP7 (11715501_s_at) / Fold change /veh IGFBP7 (11715501_s_at) / RFU REEP3 (11722064_at) / Fold change /veh REEP3 (11722064_at) / RFU IGLL1 (11728026_x_at) / Fold change /veh IGLL1 (11728026_x_at): dose or concentration left out as unconfirmed
Conditions: ProbeSet 11747888_a_at; LIST D

Structure (SMILES): Nc1ccc(-c2cccs2)cc1NC(=O)c1ccc2c(c1)cc(C1CC1)n2CCN1CCOCC1 [ACY-1035]
- RFU, SH3YL1: 63.67 RFU
